Experiment [1] concerns LXFA 1041 human tumor xenograft cells. The experiment can be described thus: Oncotest tumor clonogenic assay, LXFA 1041. In kind it is cell-based. Particulars: colony formation, NSCLC LXFA 1041, adeno carcinoma, md, read-out: Absolute IC50.
A further experiment deals with U87MG. Nature of the experiment: Cell proliferation assay (CellTiter-Glo), U87MG. It is filed as cell-based. Particulars: Homo sapiens, U-87 MG, 96 h. As to the method:
(§1) Plate cells in a 96-well plate at 2000 cells/well in 100 μL of cell specific medium (for U87MG use DMEM, 10% FBS, 25 mM 4-(2-hydroxyethyl)-1-piperazineethanesulfonic acid (HEPES), 1.0 mM sodium pyruvate, and 0.1 mM Non Essential Amino Acids (ATCC Cat.#30-2002); for HT1080 use Eagle's MEM, 10% FBS (ATCC Cat.#30-2003); for H1975, A2780, SJSA-1 and 786-O use RPMI 1640, 10% FBS (ATCC Cat.#30-2001); for A204 use McCoy's 5A, 10% FBS (ATCC Cat.#30-2007) except in column 1 use medium only as the blank control. Incubate the plates overnight at 37° C. and 5% CO2. On the next day, prepare compound stocks at 1 mM in DMSO and serially dilute in DMSO in a 96-well round bottom polypropylene plate. Assay compounds at 10 concentrations in duplicate, 4 compounds per plate.
(§2) Transfer 4 μL of the DMSO serial dilutions to a 96 well plate and add 196 μL of culture medium to create a 10× stock for dosing. Gently transfer 11 μL of each dosing stock to the corresponding well of the cell plate resulting in a 0.2% DMSO concentration and a 111 μL final volume. […]
(§3) Prepared the CellTiter-Glo reagent (Promega, Cat: G7571) and add 100 µL to each well after the incubation is complete, homogenize the cells by mixing on an orbital shaker for 2 min and then incubate at RT for 10 min to allow the luminescent signal to stabilize. Record the luminescent raw data with a Wallac Victor V plate reader. […]
Background: ATP-based viability assays read luminescence as a measure of living cells.

Experiment [2] has as its system SXF 1186 human tumor xenograft cells. Nature of the experiment: Oncotest tumor clonogenic assay, SXF 1186. The conditions noted are these: colony formation, Sarcoma SXF 1186, osteoblastic osteosarcoma, md, read-out: Absolute IC50. In kind it is cell-based.
Experiment [3] concerns RXF 1220 human tumor xenograft cells. Nature of the experiment: Oncotest tumor clonogenic assay, RXF 1220. Particulars: colony formation, Renal RXF 1220, hypernephroma, pd, read-out: Absolute IC50. It is filed as cell-based.
The subject of experiment [4] is p110α(E545K)/myc leukemic cells. Nature of the experiment: E545Kp110a leukemia model. In kind it is in vivo, mouse. Particulars: oral gavage, day 5 through day 11, blood on day 12. The text has this:
Leukemia cell line creation: Transduce embryonic liver cells derived from transgenic embryos, B6.Cg-Tg[IghMyc]22Bri/J (Jackson Laboratory, Bar Harbor, Me.), with a retrovirus expressing a clinically-isolated activating mutation of human p110α (E545K as an amino acid change, G1633A on the nucleotide level) under control of the viral 5′ LTR (long terminal repeat) and expressing GFP (green fluorescent protein) under control of the PGK promoter (MSCV6 FLAG-p110α G1633A PGK/GFP) to create target-driven leukemia cells. Transfer the transduced cells into a lethally irradiated host animal. The transduced cells repopulate the hematopoietic stem cells among bone marrow of the recipient and rescue the recipient animal from radiation-induced lethality due to ablation of the recipient's original bone marrow. Observe the rescued primary animals for development of leukemia via weekly monitoring white blood cell counts in a small amount of blood (10 μL) collected retro-orbitally. Collect blood from primary irradiated animals with confirmed leukemia and serially passage to secondary (non-irradiated) host animals in order to establish as a leukemic cell line.
Subject Animals: Use female C57BL/6 mice (Taconic, Cambridge City, Ind.), 8 to 10 week old and 20 to 22 g in weight, as leukemia recipient animals. Acclimate animals on normal low fat diet (4.5%) prior to inoculation and continue on that diet ad libitum for the duration of the study. Identify individual mice from each group by ear punches. Inoculate animals with leukemic cells from donor animals (day 0).
Syngeneic leukemia model: From a donor animal previously inoculated with the leukemic cell line of interest, collect a small amount of blood retro-orbitally (10 μL) and measure the leukemia cell burden by white blood cell count. From animals with sufficient leukemic burden, collect donor blood, dilute with phosphate-buffered saline (PBS) to 500,000 white blood cells per 200 μL and inject 200 μL per animal retro-orbitally on day 0 to initiate leukemia. […]

Experiment [5] deals with MEXF 989 human tumor xenograft cells. The experiment can be described thus: Oncotest tumor clonogenic assay, MEXF 989. The conditions noted are these: colony formation, Melanoma MEXF 989, amelanotic melanoma, md, read-out: Absolute IC50. In kind it is cell-based.
Experiment [6] deals with LXFE 1422 human tumor xenograft cells. The experiment can be described thus: Oncotest tumor clonogenic assay, LXFE 1422. The conditions noted are these: colony formation, NSCLC LXFE 1422, squamous cell carcinoma, ud, read-out: Absolute IC50. It is filed as cell-based.
In experiment [7] the test system is RXF 393 human tumor xenograft cells. The experiment can be described thus: Oncotest tumor clonogenic assay, RXF 393. It is filed as cell-based. Particulars: colony formation, Renal RXF 393, hypernephroid carcinoma, pd, read-out: Absolute IC50.
The subject of experiment [8] is PAXF 546 human tumor xenograft cells. The experiment can be described thus: Oncotest tumor clonogenic assay, PAXF 546. The conditions noted are these: PAXF546, colony formation, Pancreas PAXF 546, inf., mucous squamous cell carcinoma, read-out: Absolute IC50. In kind it is cell-based.
For a further experiment, the system named is HT-1080. The experiment can be described thus: Cell proliferation assay (CellTiter-Glo), HT-1080. It is filed as cell-based. Particulars: Homo sapiens, HT-1080, 72 h. The procedure: as §1, §2, §3
Experiment [9] concerns MEXF 1539 human tumor xenograft cells. The experiment can be described thus: Oncotest tumor clonogenic assay, MEXF 1539. It is filed as cell-based. Particulars: colony formation, Melanoma MEXF 1539, amelanotic melanoma, md, read-out: Absolute IC50.
The test system of experiment [10] is MAXF 583 human tumor xenograft cells. The experiment can be described thus: Oncotest tumor clonogenic assay, MAXF 583. It is filed as cell-based. The conditions noted are these: colony formation, Mammary MAXF 583, ductual adeno carcinoma, md, read-out: Absolute IC50.

Turning to `CO[C@@H](C)Cn1c(=O)n(C)c2cnc3ccc(-c4cncc(C(C)(C)O)c4)cc3c21` [Example 1, 8-[5-(1-Hydroxy-1-methylethyl)pyridin-3-yl]-1-[(2S)-2-methoxypropyl]-3-methyl-1,3-dihydro-2H-imidazo[4,5-c]quinolin-2-one], the IC50 in experiment [1] worked out at 205 nM; in the experiment with U87MG, 74 nM; in [2], 110 nM; in [3], 191 nM; in [5] it was 185 nM; in experiment [6], 231 nM. The IC50 in experiment [7] was found to be 44 nM; in experiment [8], 105 nM; in the experiment on HT-1080, 72 nM; in experiment [9], 246 nM; in experiment [10] it was 88 nM. Moreover, the “% TGI” value in experiment [4] (5 mg/kg qd) is given as 50.5%; in experiment [4] (10 mg/kg qd), 76.1%; in experiment [4] (20 mg/kg qd), 90.1%.

For orientation: IC50 means the concentration that gives 50% inhibition.

These data come from patent publication US8658668B2, “PI3 kinase/mTOR dual inhibitor” (Eli Lilly and Company, priority 2011, dated 2014).
